The subject of assay [1] is human VEGFA. The assay is described as follows: plasma human VEGF level of 786-O xenograft bearing mice. Format: in vivo. The conditions noted are these: 10, 30 and 100 mg/kg three times at 12 hour intervals, 12 h post treatment vs prior to treatment, FIG. 5.
Assay [2] deals with renal cell carcinoma 786-O xenograft. The assay is described as follows: tumor size in 786-O xenograft bearing mice, single agent. The conditions noted are these: 3, 10, 30 and 100 mg/kg BID for 20 days, FIG. 7. The class given is in vivo.
The subject of assay [3] is mouse kidney. The assay is described as follows: In vivo PK/PD study, kidney mRNA levels by qRT-PCR. Further details: species or system SCID/Biege mice. Conditions: FIG. 3. As to the method:
About 5×10^6 renal cell carcinoma 786-O tumor cells (ATCC® CRL-1932™, VHL and HIF-1α null cell line) in PBS and Matrigel (1:1 in volume) were injected subcutaneously at the right flanks of SCID/Biege mice at 6-7 weeks of age for xenograft development. When the xenografts reached about 450 mm^3 in size, the tumor bearing mice were randomly divided into 4 groups (n=4). Plasma was collected prior to treatment by retro-orbital bleeding. […] All animals were sacrificed at 12 hours post last dose. Tumor, kidney, and plasma were collected from each animal. Total RNA was extracted from the tumors and kidneys. The mRNA levels of HIF-1α, HIF-2α and their respective target genes were determined by qRT-PCR (FIG. 1).
A general note: Real-time PCR tracks product formation cycle by cycle.

Assay [4] has as its system human VEGFA. The assay is described as follows: In vivo PK/PD study, plasma human VEGFA by ELISA. Further details: species or system SCID/Biege mice. The conditions noted are these: 786-O tumor-bearing mice; 10, 30 or 100 mg/kg; FIG. 5. (In general: ELISA stands for enzyme-linked immunosorbent assay.)
Assay [5] concerns 786-O renal cell carcinoma xenograft. The assay is described as follows: In vivo efficacy study, 786-O xenograft. Also noted: species or system SCID/Biege mice. Conditions: for Tumor size Mean ± SEM: after 20 days of dosing.

Consider `N#Cc1cc(F)cc(Oc2ccc(S(=O)(=O)C(F)F)c3c2CC(F)(F)[C@H]3O)c1` [Compound 15, 3-[(1S)-7-(difluoromethylsulfonyl)-2,2-difluoro-1-hydroxy-indan-4-yl]oxy-5-fluoro-benzonitrile], for which the figures for the “plasma level of human VEGFA” value in assay [1] and in assay [4] were “reduced” and “significant reduction”, respectively. Also, the tumor size result in assay [2] is “tumor size reduction and regression”. The “Kidney EPO mRNA level” value in assay [3] is “reduced”. In assay [3], the “Kidney PGK1 mRNA level” value is recorded as “remained unchanged”. The “Tumor size Mean ± SEM” value in assay [5] (3 mg/kg BID) is 136.29 ± 15.77 mm^3; in assay [5] (10 mg/kg BID) it was 45.36 ± 2.22 mm^3; in assay [5] (30 mg/kg BID), 35.63 ± 2.26 mm^3; in assay [5] (100 mg/kg BID), 37.11 ± .6 mm^3. The “Tumor size change vs vehicle” value in assay [5] (3, 10, 30 and 100 mg/kg BID, 20 days, t-Test) was “statistically significant reduction of tumor size”.

The values above are taken from US9896418B2, “Aryl ethers and uses thereof” (Peloton Therapeutics, Inc., priority 2013, dated 2018).
